Measured values: patent publication US20120202856A1, “SUBSTITUTED BENZIMDAZOLE DERIVATIVES USEFUL AS TRPM8 RECEPTOR MODULATORS” (priority 2011, published 2012)
“And” between values parts separate entries of the source, which are not always exact repeats. Equal values may be shown once. Where a name gives a salt, the structure may show the parent alone. Read-outs that look alike come from different tables or passages of the source.

Target: T1, canine TRPM8 (Canis lupus familiaris, UniProt Q1A7N1)
T1 construct: expressed in transfected cells
Test: In Vitro Canine TRPM8 Functional Assay (intracellular Ca2+ fluorescence, icilin activation, HEK293 cells)
Assay type: cell-based
Settings: for inhibition at 0.2 µM / % Inh (%) @0.2 μM, in vitro TRP M8 Activity: individually measured values; for IC50: HEK293 cells expressing canine TRPM8, icilin activation, individually measured values (batches/salt forms), read-out: IC50 (nM), in vitro TRP M8 Activity; for % Inh (%) @0.2 μM, in vitro TRP M8 Activity: 0.2 μM test compound
How it was run: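 Inhibition of icilin-evoked calcium influx measured by Calcium 3 fluorescence (FLIPR or FDSS) in canine TRPM8 HEK293 cells. After basal subtraction, data expressed as percent of maximum; quadruplicate means fitted by sigmoidal dose–response to give IC50.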

[1] = HEK293, 0.2 μM test compound, read-out: % Inh (%) @0.2 μM, in vitro TRP M8 Activity
[2] = HEK293, read-out: % Inh (%) @0.2 μM, in vitro TRP M8 Activity, 0.2 μM test compound

T1 sequence (Q1A7N1 1-1104): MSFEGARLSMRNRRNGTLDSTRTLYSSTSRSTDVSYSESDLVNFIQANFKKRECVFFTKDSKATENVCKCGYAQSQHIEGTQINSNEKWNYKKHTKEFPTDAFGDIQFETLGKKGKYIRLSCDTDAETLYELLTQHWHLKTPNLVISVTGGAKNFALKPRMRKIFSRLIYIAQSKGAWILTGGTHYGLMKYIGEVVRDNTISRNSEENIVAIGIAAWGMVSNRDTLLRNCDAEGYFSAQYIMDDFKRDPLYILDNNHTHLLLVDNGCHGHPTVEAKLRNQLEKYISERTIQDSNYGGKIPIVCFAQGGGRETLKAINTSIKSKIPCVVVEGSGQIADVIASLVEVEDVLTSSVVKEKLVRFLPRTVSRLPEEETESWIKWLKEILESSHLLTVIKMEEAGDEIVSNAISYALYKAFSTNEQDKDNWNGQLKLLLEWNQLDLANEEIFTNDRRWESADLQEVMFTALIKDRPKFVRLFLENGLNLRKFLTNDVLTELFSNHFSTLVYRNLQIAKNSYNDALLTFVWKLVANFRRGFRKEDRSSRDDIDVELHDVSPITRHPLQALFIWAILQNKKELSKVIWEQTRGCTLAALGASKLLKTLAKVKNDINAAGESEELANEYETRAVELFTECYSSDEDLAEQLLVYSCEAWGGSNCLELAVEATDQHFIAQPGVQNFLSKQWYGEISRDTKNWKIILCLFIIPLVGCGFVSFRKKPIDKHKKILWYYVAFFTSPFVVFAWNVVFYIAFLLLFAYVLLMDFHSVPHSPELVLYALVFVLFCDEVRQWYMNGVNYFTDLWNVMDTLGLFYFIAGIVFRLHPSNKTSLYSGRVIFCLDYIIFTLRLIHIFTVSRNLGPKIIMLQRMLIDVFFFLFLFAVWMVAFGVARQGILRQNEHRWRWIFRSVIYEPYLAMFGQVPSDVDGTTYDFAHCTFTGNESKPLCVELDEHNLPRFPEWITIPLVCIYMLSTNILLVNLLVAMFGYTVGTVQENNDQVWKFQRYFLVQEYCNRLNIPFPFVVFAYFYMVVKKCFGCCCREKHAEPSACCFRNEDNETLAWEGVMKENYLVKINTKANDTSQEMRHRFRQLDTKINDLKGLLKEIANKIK

inhibition at 0.2 µM [1] [%] | Compound | IC50 | also measured
100 | Cl.Cn1nc(C(C)(C)C)c(C#N)c1-c1nc2cc(-c3ccccc3Cl)cc(C(F)(F)F)c2[nH]1 [Compound 148, 3-tert-Butyl-5-[5-(2-chloro-phenyl)-7-trifluoromethyl-1H-benzimidazol-2-yl]-1-methyl-1H-pyrazole-4-carbonitrile hydrochloride] | 5 nM and 4.1 nM and 2.9 nM | % Inh (%) @0.2 μM, in vitro TRP M8 Activity (hydrochloride, 0.2 µM): 99%
25 | Cc1oc(C(C)(C)C)nc1-c1nc2cc(-c3ccccc3C(F)(F)F)cc(C(F)(F)F)c2[nH]1 [Compound 153, 2-(2-tert-Butyl-5-methyl-oxazol-4-yl)-7-trifluoromethyl-5-(2-trifluoromethyl-phenyl)-1H-benzimidazole hydrochloride] |  | 
57 | Cc1oc(C(C)(C)C)nc1-c1nc2cc(-c3ccccc3F)cc(C(F)(F)F)c2[nH]1 [Compound 154, 2-(2-tert-Butyl-5-methyl-oxazol-4-yl)-5-(2-fluoro-phenyl)-7-trifluoromethyl-1H-benzimidazole hydrochloride] |  | 
59 | Cc1oc(C(C)(C)C)nc1-c1nc2cc(-c3ccccc3Cl)cc(C(F)(F)F)c2[nH]1 [Compound 155, 2-(2-tert-Butyl-5-methyl-oxazol-4-yl)-5-(2-chloro-phenyl)-7-trifluoromethyl-1H-benzimidazole hydrochloride] |  | 

The remaining lines, values behind:

Compound | inhibition at 0.2 µM [1] [%] | IC50 | also measured
Cn1nc(C(C)(C)C)c(C#N)c1-c1nc2cc(-c3ccccc3F)cc(C(F)(F)F)c2[n-]1.[Na+] [Compound 147, 3-tert-Butyl-5-[(5-(2-fluoro-phenyl)-7-trifluoromethyl-1H-benzimidazol-2-yl]-1-methyl-1H-pyrazole-4-carbonitrilesodium salt] | 100 | 5.9 nM and 4.8 nM and 5.1 nM | 
Cn1nc(C(C)(C)C)c(C#N)c1-c1nc2cc(-c3ccccc3F)cc(C(F)(F)F)c2[n-]1.[Na+] [Compound 147] |  |  | % Inh (%) @0.2 μM, in vitro TRP M8 Activity (sodium salt, 0.2 µM): 98%
Cn1nc(C(C)(C)C)c(C#N)c1-c1nc2cc(-c3ccccc3C(F)(F)F)cc(C(F)(F)F)c2[nH]1.[Na] [Compound 149, 3-tert-Butyl-1-methyl-5-[7-trifluoromethyl-5-(2-trifluoromethyl-phenyl)-1H-benzimidazol-2-yl]-1H-pyrazole-4-carbonitrile sodium salt] |  | 3.8 nM and 5.1 nM and 3.2 nM | % Inh (%) @0.2 μM, in vitro TRP M8 Activity (sodium salt, 0.2 µM): 99%; inhibition at 0.2 µM [2]: 100%
Cn1nc(C(C)(C)C)c(C#N)c1-c1nc2cc(-c3ccccc3OC(F)(F)F)cc(C(F)(F)F)c2[nH]1.[Na] [Compound 150, 3-tert-Butyl-1-methyl-5-[5-(2-trifluoromethoxy-phenyl)-7-trifluoromethyl-1H-benzimidazol-2-yl]-1H-pyrazole-4-carbonitrile sodium salt] |  | 5.7 nM and 7.2 nM and 8.3 nM | % Inh (%) @0.2 μM, in vitro TRP M8 Activity: 100, 100%; inhibition at 0.2 µM [2]: 100%
Cn1nc(C(C)(C)C)c(C#N)c1-c1nc2cc(-c3c(F)cccc3F)cc(C(F)(F)F)c2[nH]1 [Compound 151, 3-tert-Butyl-5-[5-(2,6-difluoro-phenyl)-7-trifluoromethyl-1H-benzimidazol-2-yl]-1-methyl-1H-pyrazole-4-carbonitrile sodium salt] |  | 4.2 nM and 6 nM and 3.8 nM | 
Cn1nc(C(C)(C)C)c(C#N)c1-c1nc2cc(-c3c(F)cccc3C(F)(F)F)cc(C(F)(F)F)c2[nH]1.[Na] [Compound 152, 3-tert-Butyl-5-[5-(2-fluoro-6-trifluoromethyl-phenyl)-7-trifluoromethyl-1H-benzimidazol-2-yl]-1-methyl-1H-pyrazole-4-carbonitrile sodium salt] |  | 5.3 nM and 6.5 nM and 5 nM | % Inh (%) @0.2 μM, in vitro TRP M8 Activity (sodium salt, 0.2 µM): 99%; inhibition at 0.2 µM [2]: 100%
Cc1oc(C(C)(C)C)nc1-c1nc2cc(-c3ccccc3OC(F)(F)F)cc(C(F)(F)F)c2[nH]1 [Compound 156, 2-(2-tert-Butyl-5-methyl-oxazol-4-yl)-5-(2-trifluoromethoxy-phenyl)-7-trifluoromethyl-1H-benzimidazole hydrochloride] | 58 |  | 
